In patent US8933075B2, “Compounds useful as antiviral agents, compositions, and methods of use” (priority 2010, dated 2015):

Test system: A/Udorn/72 (H3N2) virus
Test: Plaque assay in MDCK cells: EC50 by reduction of plaque number
Format: cell-based, influenza virus
Conditions: MDCK

| SMILES | EC50 [nM] |
| --- | --- |
| COc1ccc2oc(=O)c(CCC(=O)OCCCc3cc(-c4ccc(Cl)cc4)oc3/C=C3\SC(=S)N(C4CC5CCC4C5)C3=O)c(O)c2c1 (stereo not shown) [Compound 336] | < 100 |
| O=C1/C(=C/c2ncc(-c3ccccc3)o2)SC(=S)N1C1CCCCCC1 [Compound 65] | < 100 |
| O=C1/C(=C/c2cc(CCCCCO)c(-c3ccc(Cl)cc3)s2)SC(=S)N1C1CC2CCC1C2 (stereo not shown) [Compound 284] | < 100 |
| O=C1/C(=C/c2oc(-c3cccc(Cl)c3)cc2CCCCCO)SC(=S)N1C1CC2CCC1C2 (stereo not shown) [Compound 345] | < 100 |
| COc1cccc(-c2c(C#CCCCOC(=O)[C@H](CC(N)=O)NC(=O)OC(C)(C)C)cc(/C=C3\SC(=S)N(C4CC5CCC4C5)C3=O)n2C)c1 (stereo partly shown) [Compound 271] | < 100 |
| O=C1/C(=C/c2oc(-c3ccc(F)cc3)cc2CCCN2CCNCC2)SC(=S)N1C1C2CC3CC(C2)CC1C3 (stereo not shown) [Compound 189] | < 100 |
| COc1ccc(-c2ccc(/C=C3\SC(=S)N(C4CCCCC4)C3=O)o2)c(F)c1F [Compound 52] | < 100 |
| COc1cc(OC)cc(-c2cc(CCCNC(=O)[C@@H]3CCCN3)c(/C=C3\SC(=S)N(C4CC5CCC4C5)C3=O)o2)c1 (stereo partly shown) [Compound 172] | < 100 |
| COc1cc(COc2ccc3oc(=O)c(-c4ccc(/C=C5\SC(=S)N(C6CC7CCC6C7)C5=O)o4)c(O)c3c2)cc(OC)c1 (stereo not shown) [Compound 326] | < 100 |
| COc1cc(-c2ccc(/C=C3\SC(=S)N(C4CC5CCC4C5)C3=O)o2)cc(OC)c1OC (stereo not shown) [Compound 2] | < 100 |
| O=C1/C(=C/c2ccc(-c3ccc(Cl)cc3)s2)SC(=S)N1C1CC2CCC1C2 (stereo not shown) [Compound 316] | < 100 |
| COc1ccc(-c2ccc(/C=C3\SC(=S)N(C4CC5CCC4C5)C3=O)o2)cc1OCC(=O)N[C@@H](CC(C)C)C(=O)O (stereo partly shown) [Compound 78] | < 100 |
| COc1cccc(-c2cc(CCCO)c(/C=C3\SC(=S)N(C4C5CC6CC(C5)CC4C6)C3=O)s2)c1 (stereo not shown) [Compound 282] | < 100 |
| O=C1/C(=C/c2oc(-c3ccc(F)cc3)cc2CCCOC[C@@H](O)CO)SC(=S)N1C1CC2CCC1C2 (stereo partly drawn) [Compound 204, (Z)-3-(bicyclo[2.2.1]heptan-2-yl)-5-((3-(3-((S)-2,3-dihydroxypropoxy)propyl)-5-(4′-fluorophenyl)-furan-2-yl)methylene)-2-thioxothiazolidin-4-one] | < 100 |
| O=C1/C(=C/c2ccc(-c3ccc(Cl)cc3)o2)SC(=S)N1C1C2CC3CC(C2)CC1C3 (stereo not shown) [Compound 43] | < 100 |
| COc1cccc(-c2cc(CCCCCO)c(/C=C3\SC(=S)N(C4CC5CCC4C5)C3=O)s2)c1 (stereo not shown) [Compound 280] | < 100 |
| NCCCc1cc(-c2ccc(F)cc2)oc1/C=C1\SC(=S)N(C2CC3CCC2C3)C1=O (stereo not shown) [Compound 127] | < 100 |
| COc1cc(OC)cc(-c2cc(CCCOC(=O)[C@H](CC(C)C)NC(=O)OCC3c4ccccc4-c4ccccc43)c(/C=C3\SC(=S)N(C4CC5CCC4C5)C3=O)o2)c1 (stereo partly shown) [Compound 141] | 250 to 1000 |
| COC(=O)[C@@H](O)[C@H](O)C(=O)OCCCc1cc(-c2ccc(F)cc2)oc1/C=C1\SC(=S)N(C2CC3CCC2C3)C1=O (stereo partly shown) [Compound 177] | < 100 |
| COc1ccc2c(O)c(-c3ccc(/C=C4\SC(=S)N(C5C6CC7CC(C6)CC5C7)C4=O)o3)c(=O)oc2c1OC (stereo not shown) [Compound 72] | 100 to 250 |
| COc1cccc(-c2cc(CCCO)c(/C=C3\SC(=S)N(C4CC5CCC4C5)C3=O)o2)c1 (stereo not shown) [Compound 353] | < 100 |

| SMILES | EC50 [nM] |
| --- | --- |
| O=C1/C(=C/c2cn(-c3ccc([N+](=O)[O-])cc3)cn2)SC(=S)N1C1CCCCCCC1 [Compound 62] | 250 to 1000 |
| COc1cc(OC)cc(-c2cc(CCCCCO)c(/C=C3\SC(=S)N(C4CC5CCC4C5)C3=O)o2)c1 (stereo not shown) [Compound 109] | < 100 |
| O=C1/C(=C/c2ccc(-c3c(O)c4ccc(OC5CCCCC5)cc4oc3=O)o2)SC(=S)N1C1CC2CCC1C2 (stereo not shown) [Compound 323] | < 100 |
| COCOc1cc(=O)oc2ccc(-c3ccc(/C=C4\SC(=S)N(C5C6CC7CC(C6)CC5C7)C4=O)o3)cc12 (stereo not shown) [Compound 75] | 250 to 1000 |
| COc1cc(OC)cc(-c2cc(CCCOC[C@@H](O)CO)c(/C=C3\SC(=S)N(C4CC5CCC4C5)C3=O)o2)c1 (stereo partly drawn) [Compound 202, (Z)-3-(bicyclo[2.2.1]heptan-2-yl)-5-((3-(3-((S)-2,3-dihydroxypropoxy)propyl)-5-(3′,5′-dimethoxy-phenyl)-furan-2-yl)methylene)-2-thioxothiazolidin-4-one] | < 100 |
| O=C1/C(=C/c2oc(-c3ccc(F)cc3)cc2CCCN2CCNCC2)SC(=S)N1C1CC2CCC1C2 (stereo not shown) [Compound 187] | < 100 |
| O=C1/C(=C/c2oc(-c3ccc(F)cc3)cc2CCCCO)SC(=S)N1C1C2CC3CC(C2)CC1C3 (stereo not shown) [Compound 116] | < 100 |
| Cn1c(/C=C2\SC(=S)N(C3CC4CCC3C4)C2=O)cc(C#CCCCOC(=O)[C@@H]2CC(=O)N(C(C)(C)C)C(=O)N2)c1-c1ccc(Cl)cc1 (stereo partly shown) [Compound 273] | 100 to 250 |
| COc1ccc(-c2ccc(/C=C3\SC(=S)N(C4CC5CCC4C5)C3=O)o2)cc1O (stereo not shown) [Compound 10] | < 100 |
| O=C(O)c1ccc(-c2ccc(/C=C3\SC(=S)N(C4C5CC6CC(C5)CC4C6)C3=O)o2)cc1 (stereo not shown) [Compound 3] | < 100 |
| CCCCCc1ccc2oc(=O)c(-c3ccc(/C=C4\SC(=S)N(C5CC6CCC5C6)C4=O)o3)c(O)c2c1 (stereo not shown) [Compound 320] | < 100 |
| O=C1/C(=C/c2oc(-c3ccc(F)cc3)cc2CCCN2CCOCC2)SC(=S)N1C1CC2CCC1C2 (stereo not shown) [Compound 180] | < 100 |
| CCOc1ccc(F)c(F)c1-c1ccc(/C=C2\SC(=S)N(C3CCCC3)C2=O)o1 [Compound 50] | < 100 |
| O=C1/C(=C/c2[nH]c(-c3ccc(Cl)cc3)cc2CCCO)SC(=S)N1C1C2CC3CC(C2)CC1C3 (stereo not shown) [Compound 234] | < 100 |
| CC(C)(C)OC(=O)N[C@@H](CC(N)=O)C(=O)N1CCN(CCCCCc2cc(-c3ccc(Cl)cc3)[nH]c2/C=C2\SC(=S)N(C3CC4CCC3C4)C2=O)CC1 (stereo partly shown) [Compound 255] | < 100 |
| O=C1/C(=C/c2oc(-c3ccc(Cl)cc3)cc2CCCCO)SC(=S)N1C1CC2CCC1C2 (stereo not shown) [Compound 333] | < 100 |
| O=C1/C(=C/c2oc(-c3ccc(Cl)cc3)cc2CCCOC[C@@H](O)CO)SC(=S)N1C1CC2CCC1C2 (stereo partly drawn) [Compound 203, (Z)-3-(bicyclo[2.2.1]heptan-2-yl)-5-((3-(3-((S)-2,3-dihydroxypropoxy)propyl)-5-(4′-chlorophenyl)-furan-2-yl)methylene)-2-thioxothiazolidin-4-one] | < 100 |
| O=C1/C(=C/c2cc3ccccc3o2)SC(=S)N1C1C2CC3CC(C2)CC1C3 (stereo not shown) [Compound 218, 3-adamantan-2-yl-5-benzofuran-2-ylmethylene-2-thioxo-thiazolidin-4-one] | < 100 |
| CC(C)(C)N1C(=O)C[C@@H](C(=O)OCCCCCc2cc(-c3cccc(Cl)c3)sc2/C=C2\SC(=S)N(C3C4CC5CC(C4)CC3C5)C2=O)NC1=O (stereo partly shown) [Compound 309] | < 100 |
| COc1cc(OC)cc(-c2cc(CCCCCCO)c(/C=C3\SC(=S)N(C4CC5CCC4C5)C3=O)o2)c1 (stereo not shown) [Compound 111] | < 100 |
| COc1ccc(-c2ccc(/C=C3\SC(=S)N(C4CC5CCC4C5)C3=O)o2)cc1OCC(=O)N[C@@H](Cc1ccc(O)cc1)C(=O)O (stereo partly shown) [Compound 77] | 100 to 250 |

| SMILES | EC50 [nM] |
| --- | --- |
| COc1ccc(-c2ccc(/C=C3\SC(=S)N(C4CC5CCC4C5)C3=O)o2)cc1C(=O)N[C@@H](CC(C)C)C(=O)O (stereo partly shown) [Compound 87] | < 100 |
| O=C1/C(=C/c2coc3ccc(Br)cc3c2=O)SC(=S)N1C1C2CC3CC(C2)CC1C3 (stereo not shown) [Compound 210, 3-adamantan-2-yl-5-(6-bromo-4-oxo-4H-chromen-3-ylmethylene)-2-thioxo-thiazolidin-4-one] | < 100 |
| O=C1/C(=C/c2cc(CCCO)c(-c3ccc(Cl)cc3)n2Cc2ccccc2)SC(=S)N1C1CC2CCC1C2 (stereo not shown) [Compound 256] | < 100 |
| O=C1/C(=C/c2cn(-c3ccc([N+](=O)[O-])cc3)cn2)SC(=S)N1C1CCCCCC1 [Compound 63] | 250 to 1000 |
| COc1cccc(-c2cc(CCCCCO)c(/C=C3\SC(=S)N(C4C5CC6CC(C5)CC4C6)C3=O)o2)c1 (stereo not shown) [Compound 347] | < 100 |
| COc1cc(OC)cc(-c2cc(CCCNC(=O)[C@H](Cc3cn(C(c4ccccc4)(c4ccccc4)c4ccccc4)cn3)NC(=O)OCC3c4ccccc4-c4ccccc43)c(/C=C3\SC(=S)N(C4CC5CCC4C5)C3=O)o2)c1 (stereo partly shown) [Compound 161] | < 100 |
| COc1cc(OC)cc(-c2cc(CCCC(C(=O)O)C(=O)O)c(/C=C3\SC(=S)N(C4CC5CCC4C5)C3=O)o2)c1 (stereo not shown) [Compound 134] | < 100 |
| COc1cc(OC)cc(-c2ccc(/C=C3\SC(=S)N(C4CC5CCC4C5)C3=O)[nH]2)c1 (stereo not shown) [Compound 58] | < 100 |
| O=C1/C(=C/c2ccc(Br)s2)SC(=S)N1C1C2CC3CC(C2)CC1C3 (stereo not shown) [Compound 212] | < 100 |
| COc1cccc(-c2cc(CCCCCO)c(/C=C3\SC(=S)N(C4C5CC6CC(C5)CC4C6)C3=O)n2C)c1 (stereo not shown) [Compound 263] | 250 to 1000 |
| COCOc1cc(-c2ccc(/C=C3\SC(=S)N(C4C5CC6CC(C5)CC4C6)C3=O)o2)cc(OC)c1OC (stereo not shown) [Compound 25] | < 100 |
| O=C1/C(=C/c2ccc(-c3cc(O)cc(O)c3)o2)SC(=S)N1C1C2CC3CC(C2)CC1C3 (stereo not shown) [Compound 5] | < 100 |
| COc1cc(OC)cc(-c2cc(CCCCN3CCOCC3)c(/C=C3\SC(=S)N(C4CC5CCC4C5)C3=O)o2)c1 (stereo not shown) [Compound 359] | < 100 |
| COc1ccc(-c2cc(CCCCCO)c(/C=C3\SC(=S)N(C4C5CC6CC(C5)CC4C6)C3=O)o2)cc1 (stereo not shown) [Compound 342] | < 100 |
| CC(C)(C)N1C(=O)C[C@@H](C(=O)OCCCCCc2cc(-c3ccc(Cl)cc3)[nH]c2/C=C2\SC(=S)N(C3C4CC5CC(C4)CC3C5)C2=O)NC1=O (stereo partly shown) [Compound 251] | < 100 |
| O=C1/C(=C/c2sc(-c3cccc(Cl)c3)cc2C#CCCCO)SC(=S)N1C1C2CC3CC(C2)CC1C3 (stereo not shown) [Compound 285] | < 100 |
| COc1cccc(-c2cc(CCCCCO)c(/C=C3\SC(=S)N(C4C5CC6CC(C5)CC4C6)C3=O)[nH]2)c1 (stereo not shown) [Compound 237] | < 100 |
| COc1cc(O)cc(-c2cc(CCCC(C(=O)O)C(=O)O)c(/C=C3\SC(=S)N(C4C5CC6CC(C5)CC4C6)C3=O)o2)c1 (stereo not shown) [Compound 136] | 100 to 250 |
| COc1cc(O)cc(-c2ccc(/C=C3\SC(=S)N(C4C5CC6CC(C5)CC4C6)C3=O)o2)c1 (stereo not shown) [Compound 18] | < 100 |
